Data taken from patent publication US20230158102A1 (priority 2020, published 2023).
Like-named read-outs stand apart in the source and are kept apart here.

Tests used:
SARS-CoV-2 (COVID-19) = test: Study APLICOV-PC (NCT04382066): efficacy in patients hospitalised for COVID-19; type: in vivo, human; conditions: for Patients discharged from hospital by Day 8, (%): 192 h; for Patients discharged from hospital by Day 31, (%) / Patients requiring oxygen therapy at Day 31, (%): 744 h
Vero E6 cells = conditions: Vero E6, absence of virus, 3 days
eEF1A = target: T1, eEF1A (Oryctolagus cuniculus, UniProt Q71V39); conditions: 14C-plitidepsin, eEF1A purified from rabbit muscle; cited from earlier work
T1 construct: eEF1A purified from rabbit muscle; from tissue; host or cells: rabbit muscle

CD45+ cells = test: Ex vivo cytokine expression (IL 6, IL 10, TNFα) in LPS-B5 stimulated CD45+ cells from broncho-alveolar lavages of treated mice; conditions: CD45+ cells from plitidepsin treated mice
Excerpt: An ex vivo study assessed the effect of plitidepsin on expression of the cytokines IL 6, IL 10, and TNFα in the lungs of mice.

in vitro = conditions: African green monkey
SARS-CoV-2 [1] = test: Mouse model of adenovirus-mediated hACE2 infected with SARS-CoV-2; type: in vivo
THP-1 cells = test: Proinflammatory cytokine secretion in stimulated THP-1 cells; type: cell-based; conditions: THP-1 cells stimulated with pathogen-associated molecular patterns-mimicking compounds
Experimental: In vitro studies were performed using THP-1 cells, a spontaneously immortalised monocyte-like cell line derived from the peripheral blood of a childhood case of acute monocytic leukaemia, that is widely used for investigating monocyte structure and function.

[2] = cancer patients, single-agent plitidepsin; cited from earlier work
HCoV-229E = type: cell-based
SARS-CoV-2 [3] = test: Transgenic K18-hACE2 mice infected with SARS-CoV-2; type: in vivo
NFκB = conditions: tumour cells, early in vitro studies; cited from earlier work
[4] = Storage stability of plitidepsin vials and reconstituted solution; type: physicochemical
Experimental: Plitidepsin will be labelled with the study protocol code, the batch number, the content, the expiry date, the storage conditions, the name of the investigator and the sponsor. The study drug will be labelled in accordance with Annex 13 of the European Good Manufacturing Practices. Plitidepsin should be stored between 2° C. and 8° C. and the vials should be kept in the outer carton to protect them from light. The drug in these conditions is stable for 60 months.
After reconstitution of the 2 mg plitidepsin vial with 4 ml of the solution for reconstitution of macrogolglycerol ricinoleate/ethanol/water for injection, the reconstituted solution should be diluted and used immediately after preparation. If not used immediately, storage times and conditions until use are the responsibility of the user. […] If storage is required before administration, solutions should be stored refrigerated and protected from light and should be used within 24 hours after reconstitution.

T1 sequence (Q71V39 whole entry): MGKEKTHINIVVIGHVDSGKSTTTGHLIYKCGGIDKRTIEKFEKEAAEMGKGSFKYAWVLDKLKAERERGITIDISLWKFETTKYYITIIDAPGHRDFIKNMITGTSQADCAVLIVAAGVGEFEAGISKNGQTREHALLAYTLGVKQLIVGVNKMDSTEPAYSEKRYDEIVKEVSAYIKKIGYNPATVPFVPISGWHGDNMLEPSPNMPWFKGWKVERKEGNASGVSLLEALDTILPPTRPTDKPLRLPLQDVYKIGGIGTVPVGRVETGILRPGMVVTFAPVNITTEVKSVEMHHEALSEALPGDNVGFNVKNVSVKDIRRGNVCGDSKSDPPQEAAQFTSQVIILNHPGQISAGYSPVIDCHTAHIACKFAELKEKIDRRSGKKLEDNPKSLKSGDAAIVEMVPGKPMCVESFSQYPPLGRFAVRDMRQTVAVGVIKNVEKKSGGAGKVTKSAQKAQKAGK

In the case of `CC[C@H](C)[C@H]1NC(=O)[C@@H](NC(=O)[C@@H](CC(C)C)N(C)C(=O)[C@@H]2CCCN2C(=O)C(C)=O)[C@@H](C)OC(=O)[C@H](Cc2ccc(OC)cc2)N(C)C(=O)[C@@H]2CCCN2C(=O)[C@H](CC(C)C)NC(=O)[C@@H](C)C(=O)[C@H](C(C)C)OC(=O)C[C@@H]1O` [PLD, (−)-(3S,6R,7S,10R,11S,15S,17S,20S,25aS)-11-hydroxy-3-(4-methoxybenzyl)-2,6,17-trimethyl-15-(1-methylethyl)-7-[[(2R)-4-methyl-2-[methyl[[(2S)-1-(2-oxopropanoyl)pyrrolidin-2-yl]carbonyl]amino]pentanoyl]amino]-10-[(1S)-1-methylpropyl]-20-(2-methylpropyl)tetradecahydro-15H-pyrrolo[2,1-f]-[1,15,4,7,10,20]dioxatetrazacyclotricosine-1,4,8,13,16,18,21(17H)-heptone], the “Patients requiring noninvasive mechanical ventilation from Day 1 to Day 15, (%)” value (SARS-CoV-2 (COVID-19); 2.5 mg) is reported as “(13.3) %”, the “Patients requiring noninvasive mechanical ventilation from Day 1 to Day 31, (%)” value (SARS-CoV-2 (COVID-19); 2.5 mg) is reported as “(13.3) %” and the “Patients requiring oxygen therapy at Day 7, (%)” value (SARS-CoV-2 (COVID-19); 2.5 mg, 168 h) is reported as “(73.3) %”. For the same compound, the “Patients discharged from hospital by Day 8, (%)” value (SARS-CoV-2 (COVID-19); 2.5 mg) was “(66.7) %”, the “Patients discharged from hospital by Day 15, (%)” value (SARS-CoV-2 (COVID-19); 2.5 mg, 360 h) was “(73.3) %” and the “Patients requiring oxygen therapy at Day 15, (%)” value (SARS-CoV-2 (COVID-19); 2.5 mg, 360 h) was “(26.7) %”. The “Patients discharged from hospital by Day 31, (%)” value (SARS-CoV-2 (COVID-19); 2.5 mg) was “(86.7) %”, the “Patients requiring oxygen therapy at Day 31, (%)” value (SARS-CoV-2 (COVID-19); 2.5 mg) was “(6.7) %” and the “Mean reduction in viral load by Day 7” value (SARS-CoV-2 (COVID-19); 168 h) was −3.1 log10 copies/mL. For the same compound, the “Patients requiring oxygen therapy at Day 7, (%)” value (SARS-CoV-2 (COVID-19); 168 h) was “(70.5) %”, the “Patients discharged from hospital by Day 8, (%)” value (SARS-CoV-2 (COVID-19)) was “(56.8) %” and the “Patients discharged from hospital by Day 15, (%)” value (SARS-CoV-2 (COVID-19); 360 h) was “(81.8) %”. For the same compound, the “Patients requiring oxygen therapy at Day 15, (%)” value (SARS-CoV-2 (COVID-19); 360 h) was “(20.5) %”, the “Patients with mild disease discharged by Day 15” value (SARS-CoV-2 (COVID-19); 360 h) was 100% and the “Patients with moderate disease discharged by Day 15” value (SARS-CoV-2 (COVID-19); 360 h) was 82%. The “Patients with severe disease discharged by Day 15” value (SARS-CoV-2 (COVID-19); 360 h) was 57%, the “Reduction in baseline viral load by Day 15” value (SARS-CoV-2 (COVID-19); 360 h) was −3.0 log and the “Patients discharged from hospital by Day 31, (%)” value (SARS-CoV-2 (COVID-19)) was “(90.9) %”. For the same compound, the “Patients requiring oxygen therapy at Day 31, (%)” value (SARS-CoV-2 (COVID-19)) was “(6.8) %”, the “Mean reduction in viral load by Day 15” value (SARS-CoV-2 (COVID-19); across dose cohorts) was 4.5 log10 copies/mL and the Tolerability of treatment (1.5, 2.0 and 2.5 mg daily for 3 days, 45 patients) was “well tolerated”. For the same compound, the “Prevalence of Grade ≥3 AEs” value (1.5-mg cohort) was 33.3%, the “Prevalence of Grade ≥3 AEs” value (2.0-mg cohort) was 20.0% and the “Prevalence of Grade ≥3 AEs” value (2.5-mg cohort) was 40.0. The “Events of special interest: Grade ≥3 ALT elevation” value (all cohorts) was 1 case, the “Patients unable to complete plitidepsin treatment” value (all cohorts) was 1 patient and the “Patients who experienced Grade ≥3 AEs” value (all cohorts (14/45)) was 31%. The “Patients who experienced a treatment-related Grade ≥3 AE” value (all cohorts, 45 patients) was 2 patients, the “Patients who experienced SAEs” value (dosed at 1.5 mg) was 6 patients and the “Patients who experienced SAEs” value (dosed at 2.0 mg) was 1 patients. The “Patients who experienced SAEs” value (dosed at 2.5 mg) was 3 patients, the “Patients with a 2 grade increase in CPK” value (human, in vivo) was 1 patient and the “Patients who experienced SAEs” value (total) was 10 patients. For the same compound, the “Cytotoxic effects of the drug at concentrations inhibiting viral-induced cytopathic effects” value (Vero E6 cells) was “no cytotoxic effects of the drug were observed”, the Binding affinity (eEF1A) was “high affinity” and the Rate of dissociation (eEF1A) was “low rate of dissociation”. The “IL 6, IL 10 and TNFα production upon LPS-B5 stimulation compared with nonstimulated controls” value (CD45+ cells) was “failed to show a marked increase in IL 6, IL 10, and TNFα”, the CC50 (in vitro) was 178 to 431 nM and the “Antiviral effects in vivo” value (SARS-CoV-2 [1]) was “potent antiviral effects in vivo”. For the same compound, the “Secretion of proinflammatory cytokines” value (THP-1 cells) was “significantly reduced the secretion of the proinflammatory cytokines”, the AE asthenia/fatigue [2] was 83% and the AE constipation [2] was 29%. For the same compound, the AE diarrhoea [2] was 31%, the AE nausea [2] was 64% and the AE pyrexia [2] was 28%. For the same compound, the AE vomiting [2] was 38%, the “Concentration as low as which an antiviral effect was induced” value (HCoV-229E) was 0.5 nM and the “Antiviral effects in vivo” value (SARS-CoV-2 [3]) was “potent antiviral effects in vivo”. For the same compound, the “Effect on NFκB” value (NFκB) was “induces down-regulation of NFκB”, the “Stability of the drug on storage” value ([4]; between 2° C. and 8° C., vials in the outer carton protected from light) was 60 months and the “Physical, chemical and microbiological stability of the reconstituted concentrated solution” value ([4]; original vial under indoor light at room temperature) was 6 hours. The “Physical, chemical and microbiological stability of the reconstituted concentrated solution” value ([4]; refrigerated conditions (5° C.±3° C.)) was 24 hours.
